Measured values: ChEMBL document CHEMBL2401653, “Synthesis, structure-property relationships and pharmacokinetic evaluation of ethyl 6-aminonicotinate sulfonylureas as antagonists of the P2Y₁₂ receptor” (Eur J Med Chem, 2013)
pIC50: −log10 of the molar value. Values after ≈ are worked out from the molar mass of the structure shown.

Experiments:
[1] = Aqueous solubility of the compound; format: physicochemical; settings: buffer
[2] = Stability of the compound in MeCN assessed as compound remaining at room temperature; format: physicochemical
[3] = 1-octanol-phosphate buffer distribution coefficient, log D of the compound at pH 7.4 after 2 days by shake flask method; format: physicochemical
P2Y purinoceptor 12 [4] = molecular target: T1, P2Y purinoceptor 12 (Homo sapiens, UniProt Q9H244)
T1 sequence (Q9H244 whole entry): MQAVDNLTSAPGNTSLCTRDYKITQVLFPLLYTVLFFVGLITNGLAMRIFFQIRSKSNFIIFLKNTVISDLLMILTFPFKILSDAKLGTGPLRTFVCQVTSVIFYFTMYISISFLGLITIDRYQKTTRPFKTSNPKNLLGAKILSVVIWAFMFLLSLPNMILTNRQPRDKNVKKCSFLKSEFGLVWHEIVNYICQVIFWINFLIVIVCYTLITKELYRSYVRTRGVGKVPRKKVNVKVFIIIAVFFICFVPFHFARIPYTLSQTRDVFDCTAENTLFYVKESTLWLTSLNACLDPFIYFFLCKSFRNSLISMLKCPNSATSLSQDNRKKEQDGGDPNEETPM

P2Y purinoceptor 12 [5] = molecular target: T1, P2Y purinoceptor 12; remark: listed apart in the source
Description: Displacement of [125I]-AZ11931285 from P2Y12 receptor (unknown origin) after 1 hr by scintillation counting analysis

physchem [6] = settings: HBSS buffer, pH 6.8
Description: Kinetic solubility in HBSS buffer at pH 6.8 after 16 hrs by LC-UV/MS analysis

[7] = Stability of the compound in MeCN assessed as compound remaining at 5 degC after 4 months; format: physicochemical; settings: read-out: Stability
Liver microsomes [8] = assay: Metabolic stability in rat liver microsomes at 1 umol/L by LC/MS analysis in absence of NADPH; format: ADME, Microsome; settings: 1 µM
Liver microsomes [9] = assay: Metabolic stability in human liver microsomes at 1 umol/L by LC/MS analysis in absence of NADPH; format: ADME, Microsome; settings: 1 µM
[10] = Apparent Permeability across apical to basolateral side in human Caco2 cells at 1 to 10 uM measured at 30 to 90 mins by LC/MS analysis; format: ADME, cell-based; settings: Caco-2
[11] = Half life in po dosed rat; format: ADME, organism-based; settings: in vivo
[12] = Half life in iv dosed rat; format: ADME, organism-based; settings: in vivo
[13] = Oral bioavailability in rat; format: ADME, organism-based; settings: in vivo
[14] = Clearance in iv dosed rat; format: ADME, organism-based; settings: in vivo
Liver microsomes [15] = assay: Intrinsic clearance in human liver microsomes at 1 umol/L by LC/MS analysis in presence of NADPH; format: ADME, Microsome; settings: 1 µM
Liver microsomes [16] = assay: Intrinsic clearance in rat liver microsomes at 1 umol/L by LC/MS analysis in presence of NADPH; format: ADME, Microsome; settings: 1 µM
Plasma = assay: Metabolic stability in rat plasma by HRMS analysis; format: ADME, cell-free
[17] = Fraction unbound in human plasma; format: ADME, cell-free
[18] = Stability of the compound in EtOH at room temperature after 21 days by LC/MS analysis; format: physicochemical; settings: 504 h
[19] = Stability of the compound in MeCN at room temperature after 21 days by LC/MS analysis; format: physicochemical; settings: 504 h
physchem [20] = settings: HBSS buffer, pH 7.4
Description: Kinetic solubility in HBSS buffer at pH 7.4 after 16 hrs by LC-UV/MS analysis

Compound: CCOC(=O)c1cc(C#N)c(N2CCN(C(=O)Nc3ccccc3)CC2)nc1C(F)(F)F
- solubility [1]: < 0.1 µM
- Stability [2]: Stable
- logD at 48 h [3]: 5

Compound: CCOC(=O)c1cc(C#N)c(N2CCN(C(=O)NCCc3cccs3)CC2)nc1C(F)(F)F
- Stability [2]: Stable
- logD at 48 h [3]: 5
- pIC50 (P2Y purinoceptor 12 [4]): 6.29
- pIC50 (P2Y purinoceptor 12 [5]): 5.89
- solubility kinetic at 16 h (physchem [6]): 15 µM (≈ 7.22 µg/mL)

Compound: CCOC(=O)c1cc(C#N)c(N2CCN(C(=O)NS(=O)(=O)c3ccc(Cl)s3)CC2)nc1C(F)(F)F
- remaining at 2922 h [7]: 10%
- Stability [2]: Stable
- Stability (Liver microsomes [8]): Stable
- Stability (Liver microsomes [9]): Stable
- Papp A→B at up to 10 µM [10]: 0.076 ×10⁻⁶ cm/s
- logD at 48 h [3]: 1.1
- pIC50 (P2Y purinoceptor 12 [4]): 7.41
- pIC50 (P2Y purinoceptor 12 [5]): 7.10

Compound: CCOC(=O)c1cc(C#N)c(N2CCN(C(=O)NS(=O)(=O)c3ccc(C)cc3)CC2)nc1C(F)(F)F
- remaining at 2922 h [7]: 52%
- Stability [2]: Stable
- half-life [11]: 0.65 h
- half-life [12]: 1.5 h
- bioavailability [13]: 20%
- clearance [14]: 89 mL/min/kg
- Intrinsic clearance (CLint) (Liver microsomes [15]): > 70 µL/min/mg
- Intrinsic clearance (Liver microsomes [16]): > 104 µL/min/mg
- Papp A→B at up to 10 µM [10]: 0.22 ×10⁻⁶ cm/s
- logD at 48 h [3]: 1.3
- pIC50 (P2Y purinoceptor 12 [4]): 7.05
- pIC50 (P2Y purinoceptor 12 [5]): 6.92

Compound: CCOC(=O)c1cnc(N2CCN(C(=O)NS(=O)(=O)c3ccc(Cl)s3)CC2)c(Cl)c1
- Stability [2]: Stable
- half-life [11]: 2.4 h
- half-life [12]: 0.92 h
- bioavailability [13]: 15%
- clearance [14]: 36 mL/min/kg
- Stability (Plasma): Unstable
- fraction unbound [17]: < 0.015
- Stability (Liver microsomes [8]): Stable
- Stability (Liver microsomes [9]): Stable
- Intrinsic clearance (CLint) (Liver microsomes [15]): > 70 µL/min/mg
- Intrinsic clearance (Liver microsomes [16]): > 104 µL/min/mg
- Papp A→B at up to 10 µM [10]: 0.11 ×10⁻⁶ cm/s
- logD at 48 h [3]: 0.9
- pIC50 (P2Y purinoceptor 12 [4]): 7.00
- pIC50 (P2Y purinoceptor 12 [5]): 7.05

Compound: CCOC(=O)c1cnc(N2CCN(C(=O)NS(=O)(=O)c3ccc(Cl)cc3)CC2)c(Cl)c1
- Stability [18]: Unstable
- Stability [19]: Stable
- Stability [2]: Stable
- Intrinsic clearance (CLint) (Liver microsomes [15]): > 70 µL/min/mg
- Intrinsic clearance (Liver microsomes [16]): > 104 µL/min/mg
- Papp A→B at up to 10 µM [10]: 1.2 ×10⁻⁶ cm/s
- logD at 48 h [3]: 1.3
- pIC50 (P2Y purinoceptor 12 [4]): 6.42
- pIC50 (P2Y purinoceptor 12 [5]): 6.28

Compound: CCOC(=O)c1cc(C#N)c(N2CC(NC(=O)NS(=O)(=O)c3ccc(Cl)s3)C2)nc1C
- solubility [1]: 83 µM (≈ 40.2 µg/mL)
- Stability [2]: Stable
- Intrinsic clearance (Liver microsomes [16]): > 104 µL/min/mg
- Papp A→B at up to 10 µM [10]: 0.11 ×10⁻⁶ cm/s
- logD at 48 h [3]: 0.8

Compound: CCOC(=O)c1cnc(N2CC(NC(=O)NS(=O)(=O)c3ccccc3)C2)c(Cl)c1
- Stability [18]: Stable
- Stability [19]: Stable
- Stability [2]: Stable
- half-life [11]: 2.1 h
- half-life [12]: 0.17 h
- bioavailability [13]: 20%
- clearance [14]: 29 mL/min/kg
- Stability (Plasma): Unstable
- fraction unbound [17]: < 0.015
- Stability (Liver microsomes [8]): Stable
- Stability (Liver microsomes [9]): Stable
- Papp A→B at up to 10 µM [10]: 3.9 ×10⁻⁶ cm/s
- logD at 48 h [3]: 0.8
- pIC50 (P2Y purinoceptor 12 [4]): 6.42
- pIC50 (P2Y purinoceptor 12 [5]): 6.37

Compound: CCOC(=O)c1cnc(N2CCC(NC(=O)NS(=O)(=O)c3ccccc3)CC2)c(Cl)c1
- Stability [18]: Unstable
- Stability [19]: Stable
- Stability [2]: Stable
- logD at 48 h [3]: 1.5
- pIC50 (P2Y purinoceptor 12 [4]): 5.49
- pIC50 (P2Y purinoceptor 12 [5]): 5.32

Compound: CCOC(=O)c1cc(C#N)c(N2CCN(C(=O)NS(=O)(=O)c3ccc(Cl)s3)CC2)nc1C
- solubility [1]: 90 µM (≈ 44.8 µg/mL)
- Stability [2]: Stable
- Stability (Liver microsomes [8]): Stable
- Stability (Liver microsomes [9]): Stable
- Intrinsic clearance (CLint) (Liver microsomes [15]): > 70 µL/min/mg
- Intrinsic clearance (Liver microsomes [16]): > 104 µL/min/mg
- Papp A→B at up to 10 µM [10]: 0.058 ×10⁻⁶ cm/s
- logD at 48 h [3]: 1
- pIC50 (P2Y purinoceptor 12 [4]): 7.47
- pIC50 (P2Y purinoceptor 12 [5]): 7.38

Compound: CCOC(=O)c1cnc(N2CCN(C(=O)NS(=O)(=O)c3ccccc3)CC2)c(Cl)c1
- Stability [2]: Stable
- Stability (Liver microsomes [8]): Stable
- Stability (Liver microsomes [9]): Stable
- Intrinsic clearance (CLint) (Liver microsomes [15]): > 70 µL/min/mg
- Intrinsic clearance (Liver microsomes [16]): > 104 µL/min/mg
- Papp A→B at up to 10 µM [10]: 0.28 ×10⁻⁶ cm/s
- pIC50 (P2Y purinoceptor 12 [4]): 6.66
- pIC50 (P2Y purinoceptor 12 [5]): 6.74
- solubility kinetic at 16 h (physchem [6]): 100 µM (≈ 45.3 µg/mL)

Compound: CCOC(=O)c1cnc(N2CCN(C(=O)NS(=O)(=O)c3ccccc3C)CC2)c(Cl)c1
- Stability [2]: Stable
- Intrinsic clearance (CLint) (Liver microsomes [15]): > 70 µL/min/mg
- Intrinsic clearance (Liver microsomes [16]): > 104 µL/min/mg
- pIC50 (P2Y purinoceptor 12 [4]): 6.59
- pIC50 (P2Y purinoceptor 12 [5]): 6.82
- solubility kinetic at 16 h (physchem [20]): 210 µM (≈ 98.1 µg/mL)

Compound: CCOC(=O)c1cnc(N2CCN(C(=O)NS(=O)(=O)c3ccc(C)cc3)CC2)c(Cl)c1
- Stability [18]: Unstable
- Stability [19]: Stable
- Stability [2]: Stable
- Intrinsic clearance (CLint) (Liver microsomes [15]): > 70 µL/min/mg
- Intrinsic clearance (Liver microsomes [16]): > 104 µL/min/mg
- Papp A→B at up to 10 µM [10]: 2.5 ×10⁻⁶ cm/s
- pIC50 (P2Y purinoceptor 12 [4]): 6.52
- pIC50 (P2Y purinoceptor 12 [5]): 6.52
- solubility kinetic at 16 h (physchem [20]): 490 µM (≈ 229 µg/mL)

Compound: CCOC(=O)c1cnc(N2CCN(C(=O)Nc3ccccc3)CC2CCC(=O)O)c(Cl)c1 (racemic)
- Stability [2]: Stable
- pIC50 (P2Y purinoceptor 12 [4]): 5.66
- pIC50 (P2Y purinoceptor 12 [5]): 6.17
- solubility kinetic at 16 h (physchem [6]): 96 µM (≈ 44.2 µg/mL)
